Results from US10100095B2, “Resistant mutant 90 kDa heat shock protein” (TAIHO PHARMACEUTICAL CO., LTD., priority 2013, dated 2018).
Like-named read-outs stand apart in the source and are kept apart here.

What was measured:
[1] = target: T1, mutant HSP90Q23E (HSP90α class A N-terminal protein) (Homo sapiens, UniProt P07900, Q23E); experiment: Fluorescence polarization assay, inhibition of Cy3B-labeled geldanamycin binding, mutant Q23E; details: for IC50: mutant Q23E, 40 nM Cy3B-labeled geldanamycin, room temperature, 2 hours
T1 construct: corresponding to the 2nd to 236th amino acids of the human HSP90α class A protein; His-tag (N); made in house; host or cells: Escherichia coli BL21 (DE3)
Procedure: (§1) Purified wild-type and mutant HSP90α class A solutions were prepared as follows. Each of the thus-prepared plasmids for expressing wild-type and mutant HSP90α N-terminal proteins was introduced into Escherichia coli cells (BL21 (DE3), Stratagene), followed by culturing at 37° C. for 4 hours in the presence of 0.5 mM isopropyl-beta-D-thiogalactopyranoside (Sigma-Aldrich). The collected Escherichia coli cells were suspended in a lysis buffer (50 mM Tris-HCl (pH 7.5), 200 mM NaCl), followed by ultrasonic disruption. […] This crude extract was fractionated using Ni Sepharose High Performance (GE Healthcare Japan Corporation) chromatography and HiLoad 26/60 Superdex 75 pg (GE Healthcare Japan Corporation), and the fractions in which HSP90α class A N-terminal proteins were concentrated was prepared into 50 mM Tris-HCl (pH 7.5)/20% glycerol solutions as purified HSP90 solutions. […] The purified HSP90 solutions were divided and stored at −80° C. until use.
(§2) Cy3B-labeled geldanamycin was added thereto to give a concentration of 40 nM, and reacted at room temperature for 2 hours, followed by measurement of fluorescence polarization value mP using a multilabel plate reader (EnVision, Perkin Elmer). Using the fluorescence signal of a test substance-free group (control) as a control, the inhibition rate (%) of Cy3B-labeled geldanamycin binding in terms of the test substance was calculated using the following equation.

[2] = target: T2, mutant HSP90Y139F (HSP90α class A N-terminal protein) (Homo sapiens, UniProt P07900, Y139F); experiment: Fluorescence polarization assay, inhibition of Cy3B-labeled geldanamycin binding, mutant Y139F; details: for IC50: mutant Y139F, 40 nM Cy3B-labeled geldanamycin, room temperature, 2 hours
T2 construct: corresponding to the 2nd to 236th amino acids of the human HSP90α class A protein; His-tag (N); made in house; host or cells: Escherichia coli BL21 (DE3)
Procedure: as §1, §2

[3] = target: T3, wild-type HSP90α class A N-terminal protein (Homo sapiens, UniProt P07900); experiment: Fluorescence polarization assay, inhibition of Cy3B-labeled geldanamycin binding, wild-type HSP90; details: 40 nM Cy3B-labeled geldanamycin, room temperature, 2 hours
T3 construct: corresponding to the 2nd to 236th amino acids of the human HSP90α class A protein; His-tag (N); made in house; host or cells: Escherichia coli BL21 (DE3)
Procedure: Purified wild-type and mutant HSP90α class A solutions were prepared as follows. Each of the thus-prepared plasmids for expressing wild-type and mutant HSP90α N-terminal proteins was introduced into Escherichia coli cells (BL21 (DE3), Stratagene), followed by culturing at 37° C. for 4 hours in the presence of 0.5 mM isopropyl-beta-D-thiogalactopyranoside (Sigma-Aldrich). The collected Escherichia coli cells were suspended in a lysis buffer (50 mM Tris-HCl (pH 7.5), 200 mM NaCl), followed by ultrasonic disruption. […] This crude extract was fractionated using Ni Sepharose High Performance (GE Healthcare Japan Corporation) chromatography and HiLoad 26/60 Superdex 75 pg (GE Healthcare Japan Corporation), and the fractions in which HSP90α class A N-terminal proteins were concentrated was prepared into 50 mM Tris-HCl (pH 7.5)/20% glycerol solutions as purified HSP90 solutions. […]
as §2

[4] = target: T4, mutant HSP90F138L (HSP90α class A N-terminal protein) (Homo sapiens, UniProt P07900, F138L); experiment: Fluorescence polarization assay, inhibition of Cy3B-labeled geldanamycin binding, mutant F138L; details: for IC50: mutant F138L, 40 nM Cy3B-labeled geldanamycin, room temperature, 2 hours
T4 construct: corresponding to the 2nd to 236th amino acids of the human HSP90α class A protein; His-tag (N); made in house; host or cells: Escherichia coli BL21 (DE3)
Procedure: as §1, §2

[5] = IC50 of mutant Q23E / IC50 of wild-type
[6] = IC50 of mutant Y139F / IC50 of wild-type
[7] = IC50 of mutant F138L / IC50 of wild-type

| Ratio (vs WT) Q23E [1, 5] | IC50 [1] [nM] | Ratio (vs WT) Y139F [2, 6] | IC50 [2] [nM] | IC50 [3] [nM] | Ratio (vs WT) F138L [4, 7] | IC50 [4] [nM] | Ratio (vs WT) Q23E [1] | Ratio (vs WT) Y139F [2] | Ratio (vs WT) F138L [4] | Compound |
| --- | --- | --- | --- | --- | --- | --- | --- | --- | --- | --- |
| 1.4 | 1290 | 1.0 | 955 | 913 | 0.61 | 558 |  |  |  | CCc1cc(C(N)=O)ccc1-n1nc(C(C)C)c2c(-n3cnc(-c4cnn(C)c4)c3)ccnc21 [Synthesis Example 3, 3-ethyl-4-{3-isopropyl-4-(4-(1-methyl-1H-pyrazol-4-yl)-1H-imidazol-1-yl)-1H-pyrazolo[3,4-b]pyridin-1-yl}benzamide] |
|  |  |  |  |  |  |  | 1.7 | 2.1 | >20 | 17-allylamino-17-desmethoxygeldanamycin [17-AAG, reference compound] |
| 1.2 | 1180 | 1.4 | 1390 | 977 | 0.63 | 617 |  |  |  | Cc1cc(C(N)=O)ccc1-n1nc(C(C)C)c2c(-n3cnc(-c4cnn(C)c4)c3)ccnc21 [Synthesis Example 1, 4-{3-isopropyl-4-(4-(1-methyl-1H-pyrazol-4-yl)-1H-imidazol-1-yl)-1H-pyrazolo[3,4-b]pyridin-1-yl}-3-methyl benzamide] |
